Measurements: patent US20250360134A1, “6-6 OR 5-6 FUSED BICYCLIC COMPOUNDS COMPRISING A PYRI(MI)DINE RING USEFUL IN THE|TREATMENT OF INFECTIOUS DISEASES” (INSTITUT NATIONAL DE LA SANTE ET DE LA RECHERCHE MEDICALE …, priority 2020, published 2025)
Structures can show the parent of a compound that is named as a salt. Where two headings read alike, the source gives them in different places.

Columns and labels:
[1] = tested on: T. brucei brucei AnTat 1.9; assay: In vitro antitrypanosomal activity, Alamar Blue assay; type: cell-based, Trypanosoma brucei brucei; settings: Trypanosoma brucei, read-out: IC50 T. brucei brucei
Experimental: The effects of the tested compounds on the growth of T. brucei brucei were assessed using an Alamar Blue® assay described in B. Raz et al., Acta Trop. 1997, 68, 139. T. brucei brucei AnTat 1.9 (IMTA, Antwerpen, Belgium) was cultured in MEM with Earle's salts, supplemented according to the protocol disclosed in T. Baltz et al., EMBO J. 1985, 4, 1273, with the following modifications: 0.5 mM mercaptoethanol (Sigma-Aldrich), 1.5 mM 1-cysteine (Sigma-Aldrich), 0.05 mM bathocuproine sulfate (Sigma-Aldrich), and 20% heat-inactivated horse serum (Gibco, France) at 37° C. and 5% CO2. Samples were incubated at an average density of 2000 parasites/well in sterile 96-well plates (Fisher, France) with various concentrations of compounds dissolved in 0.9% NaCl. All doses were tested in duplicate. Appropriate controls treated with solvents 0.9% NaCl or DMSO or with suramin, pentamidine, eflornithine, and fexinidazole (reference drugs purchased from Sigma-Aldrich and Fluorochem, UK) were added to each set of experiments. After a 69-hour incubation at 37° C., 10 μl of the viability marker Alamar Blue (Fisher) was added to each well, and the plates were incubated for 5 hour. The plates were read in a PerkinElmer ENSPIRE (Germany) microplate reader using an excitation wavelength of 530 nm and an emission wavelength of 590 nm. The IC50 was defined as the concentration of drug necessary to inhibit by 50% the activity of T. brucei brucei compared to the control. IC50 values were calculated using a non-linear regression analysis of dose-response curves performed using GraphPad Prism software (USA). IC50 values were calculated from three independent experiments.

[2] = tested on: human telomeric sequence F21T; assay: FRET-melting, F21T; settings: K+ condition, 2 μM compound, 0.2 μM oligonucleotide
[3] = tested on: human duplex sequence FdxT; assay: FRET-melting, FdxT; settings: duplex control, K+ condition, 2 μM compound, 0.2 μM oligonucleotide
[4] = tested on: Plasmodium telomeric sequence FPf1T; assay: FRET-melting, FPf1T; settings: K+ condition, 2 μM compound, 0.2 μM oligonucleotide
[5] = tested on: Plasmodium telomeric sequence FPf8T; assay: FRET-melting, FPf8T; settings: K+ condition, 2 μM compound, 0.2 μM oligonucleotide
[6] = tested on: Trypanosoma 9 and 11 chromosomic sequence FTrypBT; assay: FRET-melting, FTrypBT; settings: K+ condition, 2 μM compound, 0.2 μM oligonucleotide
Plasmodium falciparum W2 = assay: In vitro antiplasmodial activity, SYBR Green I, strain W2
Experimental: (§1) The in vitro antiplasmodial activities were tested over concentrations ranging from 39 to 40 μm against culture-adapted Plasmodium falciparum: reference strains 3D7 and W2. […] The parasites were cultivated in RPMI medium (Sigma-Aldrich, Lyon, France) supplemented with 0.5% Albumax I (Life Technologies Corporation, Paisley, UK), hypoxanthine (Sigma-Aldrich), and gentamicin (Sigma-Aldrich) with human erythrocytes and were incubated at 37° C. in a candle jar, as described in Desjardins R E et al., Antimicrob Agents Chemother, 1979; 16:710-18.
(§2) The P. falciparum drug susceptibility test was carried out in 96-well flat bottom sterile plates in a final volume of 250 μL. After a 48-hour incubation with the drugs, quantities of DNA in treated and control cultures of parasites in human erythrocytes were quantified using the SYBR Green I (Sigma-Aldrich) fluorescence-based method as described in Bennett T N et al, Antimicrob Agents Chemother, 2004; 48:1807-10. Briefly, after incubation, plates were frozen at −20° C. until use. Plates were then thawed for 2 hours at room temperature, and 100 μL of each homogenized culture was transferred to a well of a 96-well flat bottom sterile black plate (Nunc, Inc., Rochester, NY) that contained 100 μL of the SYBR Green I lysis buffer (2×SYBR Green, 20 mM Tris base pH 7.5, 5 mM EDTA, 0.008% w/v saponin, 0.08% w/v Triton X-100). […] Plates were incubated for 1 hour at room temperature and then read on a fluorescence plate reader (Tecan, Grödig, Austria) using excitation and emission wavelengths of 485 and 535 nm, respectively. Concentrations inhibiting 50% of the parasite's growth (half maximal inhibitory concentration or IC50 values) were then calculated from the obtained experimental results by non-linear regression analysis of data from dose-response curves, using TableCurve 2D version 5.0 software (Systat Software, San Jose, CA). IC50 values are reported as means calculated from three independent experiments, as described in H. Kaddouri et al., Antimicrob.

[7] = tested on: Plasmodium falciparum 3D7; assay: In vitro antiplasmodial activity, SYBR Green I, strain 3D7
Experimental: as §1, §2

[8] = 69-hour incubation, Alamar Blue
[9] = Plasmodium falciparum, W2, 48 h, read-out: IC50 Plasmodium falciparum W2, chloroquine-resistant strain W2, 48-hour incubation
[10] = Plasmodium falciparum, 3D7, 48 h, read-out: IC50 Plasmodium falciparum 3D7, chloroquine-sensitive strain 3D7, 48-hour incubation
[11] = read-out: IC50 Plasmodium falciparum 3D7, chloroquine-sensitive strain 3D7, 48-hour incubation, oxalate
[12] = read-out: IC50 Plasmodium falciparum W2, chloroquine-resistant strain W2, 48-hour incubation
[13] = read-out: IC50 Plasmodium falciparum 3D7, chloroquine-sensitive strain 3D7, 48-hour incubation

Row | Structure (SMILES) | IC50 [1, 8] [nM] | FRET-melting values in K+ conditions at 2 μM ΔTm F21T [2] [°C] | FRET-melting values in K+ conditions at 2 μM ΔTm FdxT [3] [°C] | FRET-melting values in K+ conditions at 2 μM ΔTm FPf1T [4] [°C] | FRET-melting values in K+ conditions at 2 μM ΔTm FPf8T [5] [°C] | FRET-melting values in K+ conditions at 2 μM ΔTm FtryBT [6] | IC50 (Plasmodium falciparum W2; [9]) [nM] | IC50 [7, 10] [nM] | IC50 ([1]; 69 h) [nM] | IC50 (Plasmodium falciparum W2; read-out: IC50 Plasmodium falciparum W2, chloroquine-resistant strain W2, 48-hour incubation, oxalate) [nM] | IC50 [7, 11] [nM] | IC50 (Plasmodium falciparum W2; [12]) [nM] | IC50 [7, 13] [nM]
1 | COC(=O)C(CCCCNCc1ccc(-c2nc(-c3ccc(CNCCCCC(NC(=O)OC(C)(C)C)C(=O)OC)cc3)c3ccn(C)c3n2)cc1)NC(=O)OC(C)(C)C (stereo not shown) [Compound 10B, 2,4-Bis{4-[(5-(tert-butoxycarbonylamino)-5-methoxycarbonyl)pentyl)aminomethyl]phenyl}-7-methyl-7H-pyrrolo[2,3-d]pyrimidine oxalate] | 7050 ± 660 | 11.8 | −1.0 | 10.1 | 11.0 | 8.9 °C | 4360 ± 1700 | 610 ± 240 | – | – | – | – | –
2 | COC(=O)C(N)CCCCNCc1ccc(-c2nc(-c3ccc(CNCCCCC(N)C(=O)OC)cc3)c3ccn(C)c3n2)cc1 (stereo not shown) [Compound 11B, 2,4-Bis{4-[(5-amino-5-(methoxycarbonyl)pentyl)aminomethyl]phenyl}-7-methyl-7H-pyrrolo[2,3-d]pyrimidine oxalate] | 5040 ± 730 | – | – | – | – | – | 70 ± 10 | > 40000 | – | – | – | – | –
3 | CN(C)CCCNCc1ccc(-n2ccc3c(-c4ccccc4)nc(-c4ccccc4)nc32)cc1 [Compound 12B, 7-(4-[(3-Dimethylaminopropyl)aminomethyl]phenyl)-2,4-diphenyl-7H-pyrrolo[2,3-d]pyrimidine oxalate] | – | – | – | – | – | – | 9140 | 380 ± 250 | – | – | – | – | –
4 | CN1CCN(CCCNCc2ccc(-c3nc(Cl)nc4c3ccn4-c3ccccc3)cc2)CC1 [Compound 18B, 2-chloro-4-{4-[(3-(4-methylpiperazin-1-yl)propyl)aminomethyl]phenyl}-7-phenyl-7H-pyrrolo[2,3-d]pyrimidine oxalate] | – | – | – | – | – | – | 6960 ± 650 | 680 ± 130 | 60 | – | – | – | –
5 | CN(C)CCCNCc1cc(-c2nc(Cl)nc3c2ccn3-c2ccccc2)cs1 [Compound 20B, 2-Chloro-4-{2-[(3-dimethylaminopropyl)aminomethyl]thien-4-yl}-7-phenyl-7H-pyrrolo[2,3-d]pyrimidine oxalate] | – | – | – | – | – | – | 13600 ± 430 | 590 ± 170 | 80 | – | – | – | –
6 | CN(C)CCCNCc1ccc(-n2ccc3c(-c4ccccc4)nc(Cl)nc32)cc1 [Compound 22B, 2-Chloro-7-(4-[(3-dimethylaminopropyl)aminomethyl]phenyl)-4-phenyl-7H-pyrrolo[2,3-d]pyrimidine oxalate] | – | – | – | – | – | – | 730 ± 220 | 800 ± 410 | 30 | – | – | – | –
7 | CN1CCN(CCCNCc2ccc(-n3ccc4c(-c5ccccc5)nc(Cl)nc43)cc2)CC1 [Compound 23B, 2-Chloro-7-(4-[(3-(4-methylpiperazin-1-yl)propyl)aminomethyl]phenyl)-4-phenyl-7H-pyrrolo[2,3-d]pyrimidine oxalate] | – | – | – | – | – | – | 9140 | 380 ± 250 | – | – | – | – | –
8 | CN(C)CCCNCc1ccc(-c2nc3c(c(-c4ccc(CNCCCN(C)C)cc4)n2)CCN(C(=O)OC(C)(C)C)C3)cc1 [Compound 24B, Tert-butyl 2,4-bis{4-[(3-dimethylaminopropyl)aminomethyl]phenyl})-5,6-dihydropyrido[3,4-d]pyrimidine-7(8H)-carboxylate oxalate] | 780 ± 60 | 10.3 | −0.7 | 9.1 | 11.6 | 7.6 °C | 180 ± 40 | 1630 ± 250 | – | – | – | – | –
9 | CN(C)CCCNCc1ccc(-c2nc3c(c(-c4ccc(CNCCCN(C)C)cc4)n2)CCNC3)cc1 [Compound 25B, 2,4-Bis{4-[(3-dimethylaminopropyl)aminomethyl]phenyl})-5,6,7,8-dihydropyrido[3,4-d]pyrimidine oxalate] | 2430 ± 100 | 12.3 | −0.9 | 10.7 | 11.1 | 8.0 °C | 2230 ± 230 | 790 ± 120 | – | – | – | – | –
10 | CN(C)CCCNCc1ccc(-c2nc(-c3ccc(CNCCCN(C)C)cc3)c3cnn(-c4ccccc4)c3n2)cc1 [Compound 36B, 4,6-Bis{4-[(3-dimethylaminopropyl)aminomethyl]phenyl}-1-phenyl-1H-pyrazolo[3,4-d]pyrimidine oxalate] | – | – | – | – | – | – | 930 ± 150 | 2510 ± 250 | – | – | – | – | –
11 | CN(C)CCCCNCc1ccc(-c2nc(-c3ccc(CNCCCCN(C)C)cc3)c3cnn(-c4ccccc4)c3n2)cc1 [Compound 37B, 4,6-Bis{4-[(4-dimethylaminobutyl)aminomethyl]phenyl}-1-phenyl-1H-pyrazolo[3,4-d]pyrimidine] | – | – | – | – | – | – | 1180 ± 120 | – | – | – | – | – | –
12 | CN(C)CCCCCNCc1ccc(-c2nc(-c3ccc(CNCCCCCN(C)C)cc3)c3cnn(-c4ccccc4)c3n2)cc1 [Compound 38B, 4,6-Bis{4-[(5-dimethylaminopentyl)aminomethyl]phenyl}-1-phenyl-1H-pyrazolo[3,4-d]pyrimidine oxalate] | – | – | – | – | – | – | – | – | – | 4730 ± 280 | 350 ± 90 | – | –
13 | CN1CCN(CCCCNCc2ccc(-c3nc(-c4ccc(CNCCCCN5CCN(C)CC5)cc4)c4cnn(-c5ccccc5)c4n3)cc2)CC1 [Compound 39B, 4,6-Bis{4-[(4-(4-methylpiperazin-1-yl)butyl)aminomethyl]phenyl}-1-phenyl-1H-pyrazolo[3,4-d]pyrimidine oxalate] | – | – | – | – | – | – | 1530 ± 90 | – | – | – | 1830 ± 470 | – | –
14 | CN(C)CCCCNCc1ccc(-c2nc(-c3ccc(CNCCCCN(C)C)cc3)c3ncn(-c4ccccc4)c3n2)cc1 [Compound 40B, 2,4-Bis{4-[(4-dimethylaminobutyl)aminomethyl]phenyl}-7-phenyl-7H-imidazo[4,5-d]pyrimidine oxalate] | – | 31.68 | 8.51 | 35.1 | 33.9 | 30.3 °C | 1770 ± 90 | 4740 ± 900 | – | – | – | – | –
15 | CN(C)CCCCCNCc1ccc(-c2nc(-c3ccc(CNCCCCCN(C)C)cc3)c3cnn(-c4ccccc4)c3n2)cc1 [Compound 41B] | – | 34.0 | 9.7 | 36.4 | 34.9 | 33.0 °C | – | – | – | – | – | 1990 ± 120 | 1990 ± 900
16 | CN1CCN(CCCCNCc2ccc(-c3nc(-c4ccc(CNCCCCN5CCN(C)CC5)cc4)c4cnn(-c5ccccc5)c4n3)cc2)CC1 [Compound 42B] | – | 30.2 | 6.8 | 33.2 | 32.1 | 30. ° C. | – | – | – | – | – | 2370 ± 130 | 700 ± 150
17 | CN(C)CCCNCc1ccc(-c2nc(Cl)nc3c2ncn3-c2ccccc2)cc1 [Compound 43B, 2-Chloro-4-{4-[(3-dimethylaminopropyl)aminomethyl]phenyl}-7-phenyl-7H-imidazo[4,5-d]pyrimidine oxalate] | – | 1.7 | 0.04 | 2.4 | 3.3 | 2.7 °C | 830 ± 170 | 1530 ± 390 | – | – | – | – | –
18 | CN(C)CCCNCc1ccc(-c2cc(Cl)nc3c2ccn3-c2ccccc2)cc1 [Compound 47B, 6-Chloro-4-{4-[(3-dimethylaminopropyl)aminomethyl]phenyl}-1-phenyl-1H-pyrrolo[2,3-b]pyridine oxalate] | – | 2.8 | −0.2 | 3.3 | 4.0 | 4.3 °C | 720 ± 300 | 150 ± 20 | – | – | – | – | –
